# Test results as given in PubChem BioAssay AID330 (DTP/NCI, 2004).
# “And” between values parts separate entries of the source, which are not always exact repeats. Equal entries are not always repeated. Toxic doses and inconclusive results are not listed.
# Tested on: P388 leukemia ip, CD2F1 mice, survival T/C
# Experiment: NCI In Vivo Anticancer Drug Screen. Data for tumor model P388 Leukemia (intraperitoneal) in CD2F1 (CDF1) mice
# Details: endpoint: median survival time, higher = longer survival
# Outline: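 Mice carrying the transplanted tumor received test compound or vehicle. Survival was recorded in each group, and the value is the treated-group measurement divided by that of the vehicle-treated control group.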
# [1] = dose: 60.0 mg/kg/injection, schedule: Q01DX005 (ip), vehicle: saline with Tween-80
# [2] = dose: 120.0 mg/kg/injection, schedule: Q01DX005 (ip), vehicle: saline with Tween-80
# [3] = dose: 240.0 mg/kg/injection, schedule: Q01DX005 (ip), vehicle: saline with Tween-80
# [4] = dose: 50.0 mg/kg/injection, schedule: Q01DX009 (ip), vehicle: saline with Tween-80
# [5] = dose: 100.0 mg/kg/injection, schedule: Q01DX009 (ip), vehicle: saline with Tween-80
# [6] = dose: 100.0 mg/kg/injection, schedule: Q04DX003 (ip), vehicle: saline with Tween-80
# [7] = dose: 200.0 mg/kg/injection, schedule: Q04DX003 (ip), vehicle: saline with Tween-80
# [8] = dose: 400.0 mg/kg/injection, schedule: Q04DX003 (ip), vehicle: saline with Tween-80
# [9] = dose: 50.0 mg/kg/injection, schedule: Q01DX009 (ip), vehicle: Klucel (hydroxypropylcellulose) (HPC)
# [10] = dose: 100.0 mg/kg/injection, schedule: Q04DX002 (ip), vehicle: saline with Tween-80
# [11] = dose: 50.0 mg/kg/injection, schedule: Q01DX005 (ip), vehicle: saline with Tween-80
# [12] = dose: 100.0 mg/kg/injection, schedule: Q01DX005 (ip), vehicle: saline with Tween-80
# [13] = dose: 200.0 mg/kg/injection, schedule: Q01DX005 (ip), vehicle: saline with Tween-80
# [14] = dose: 25.0 mg/kg/injection, schedule: Q01DX009 (ip), vehicle: distilled water + Tween-80
# [15] = dose: 50.0 mg/kg/injection, schedule: Q01DX009 (ip), vehicle: distilled water + Tween-80
# [16] = dose: 100.0 mg/kg/injection, schedule: Q01DX009 (ip), vehicle: distilled water + Tween-80
# [17] = dose: 200.0 mg/kg/injection, schedule: Q01DX009 (ip), vehicle: distilled water + Tween-80
compound,measurement,setting,value
COc1ccc(/C=C/Cc2cc3c(cc2OC)OCO3)cc1,T/C,[1],104 % of control
same,T/C,[2],93 % of control
same,T/C,[3],90 % of control
C[C@]12CCC(=O)C=C1CC[C@@H]1[C@@H]2[C@@H](O)C[C@@]2(C)[C@H]1CC[C@]2(C)O,T/C,"dose: 25.0 mg/kg/injection, schedule: Q01DX009 (ip), vehicle: saline with Tween-80",90 % of control
same,T/C,[4],100 % of control
same,T/C,[5],100 % of control
same,T/C,[6],100 % of control
same,T/C,[7],100 % of control
same,T/C,[8],100 % of control
CC(=O)OCC1OC(n2nc(/C=C/c3ccco3)c(=O)n(-c3ccccc3)c2=S)C(OC(C)=O)C(OC(C)=O)C1OC(C)=O (stereo unspecified),T/C,[6],107 % of control
same,T/C,[7],100 % of control
same,T/C,[8],101 % of control
O=C(COc1ccc(Cl)cc1Cl)NCCN1CCCCC1,T/C,[9],107 % of control
same,T/C,"dose: 100.0 mg/kg/injection, schedule: Q01DX009 (ip), vehicle: Klucel (hydroxypropylcellulose) (HPC)",100 % of control
same,T/C,"dose: 200.0 mg/kg/injection, schedule: Q01DX009 (ip), vehicle: Klucel (hydroxypropylcellulose) (HPC)",100 % of control
COc1cc(C2(C3CC(=O)OC3COC(c3ccccc3)(c3ccccc3)c3ccccc3)SCCCS2)cc(OC)c1OC (stereo unspecified),T/C,[10],88 % of control
O=C1CC(Cl)(CS(F)(F)(F)(F)F)O1 (stereo unspecified),T/C,"dose: 12.5 mg/kg/injection, schedule: Q01DX005 (ip), vehicle: saline + alcohol",100 % of control
same,T/C,"dose: 12.5 mg/kg/injection, schedule: Q01DX005 (ip), vehicle: saline with Tween-80",104 % of control
same,T/C,"dose: 25.0 mg/kg/injection, schedule: Q01DX005 (ip), vehicle: saline + alcohol",103 % of control
same,T/C,"dose: 25.0 mg/kg/injection, schedule: Q01DX005 (ip), vehicle: saline with Tween-80",109 % of control
same,T/C,"dose: 50.0 mg/kg/injection, schedule: Q01DX005 (ip), vehicle: saline + alcohol",99 % of control
same,T/C,[11],110 % of control and 114 % of control
S=C(N/N=C\c1nc2ccccc2c2ccccc12)Nc1ccccc1,T/C,"dose: 100.0 mg/kg/injection, schedule: Q04DX002 (ip), vehicle: Klucel (hydroxypropylcellulose) (HPC)",99 % of control
same,T/C,"dose: 200.0 mg/kg/injection, schedule: Q04DX002 (ip), vehicle: Klucel (hydroxypropylcellulose) (HPC)",94 % of control
same,T/C,"dose: 400.0 mg/kg/injection, schedule: Q04DX002 (ip), vehicle: Klucel (hydroxypropylcellulose) (HPC)",93 % of control
FC(F)(F)C1(C(F)(F)F)OI(Cl)c2ccccc21,T/C,"dose: 12.5 mg/kg/injection, schedule: Q04DX002 (ip), vehicle: Klucel (hydroxypropylcellulose) (HPC)",99 % of control
same,T/C,"dose: 25.0 mg/kg/injection, schedule: Q04DX002 (ip), vehicle: Klucel (hydroxypropylcellulose) (HPC)",99 % of control
same,T/C,"dose: 50.0 mg/kg/injection, schedule: Q04DX002 (ip), vehicle: Klucel (hydroxypropylcellulose) (HPC)",98 % of control
O=C(O)CCCc1ccc2c(c1)OCO2,T/C,[11],113 % of control
same,T/C,[12],98 % of control
same,T/C,[13],106 % of control
CCN(CC)C(=O)c1cc(OC)c(C(=O)N(CC)CC)cc1OC,T/C,[1],100 % of control
same,T/C,[2],108 % of control
same,T/C,[3],101 % of control
COC1CCCC2OC3(OC)C(OC)CCCC3OC12OC (stereo unspecified),T/C,"dose: 50.0 mg/kg/injection, schedule: Q04DX003 (ip), vehicle: Klucel (hydroxypropylcellulose) (HPC)",100 % of control
same,T/C,"dose: 100.0 mg/kg/injection, schedule: Q04DX003 (ip), vehicle: Klucel (hydroxypropylcellulose) (HPC)",97 % of control
same,T/C,"dose: 200.0 mg/kg/injection, schedule: Q04DX003 (ip), vehicle: Klucel (hydroxypropylcellulose) (HPC)",96 % of control
CC(C)C(NC(=O)OC(C)(C)C)C(=O)NC(CC(=O)OCc1ccccc1)C(=O)OCc1ccccc1 (stereo unspecified),T/C,[12],88 % of control
same,T/C,[13],91 % of control
same,T/C,"dose: 400.0 mg/kg/injection, schedule: Q01DX005 (ip), vehicle: saline with Tween-80",88 % of control
Clc1ccc(/C=N/Nc2nnc3c(n2)[nH]c2ccccc23)cc1,T/C,[10],99 % of control
same,T/C,"dose: 200.0 mg/kg/injection, schedule: Q04DX002 (ip), vehicle: saline with Tween-80",100 % of control
same,T/C,"dose: 400.0 mg/kg/injection, schedule: Q04DX002 (ip), vehicle: saline with Tween-80",90 % of control
O=c1oc2ccc(Br)cc2cc1-n1nnc2cc([N+](=O)[O-])ccc21,T/C,[11],90 % of control
same,T/C,[12],89 % of control
same,T/C,[13],89 % of control
Cc1nc2scc(-c3ccccc3)n2c(=O)c1CN1CCOCC1,T/C,"dose: 37.5 mg/kg/injection, schedule: Q04DX002 (ip), vehicle: Klucel (hydroxypropylcellulose) (HPC)",106 % of control
same,T/C,"dose: 75.0 mg/kg/injection, schedule: Q04DX002 (ip), vehicle: Klucel (hydroxypropylcellulose) (HPC)",97 % of control
same,T/C,"dose: 150.0 mg/kg/injection, schedule: Q04DX002 (ip), vehicle: Klucel (hydroxypropylcellulose) (HPC)",103 % of control
CCCCCCCCCCCCCCCC[N+]1(CCCCCCCCCCCC)CCSCC1 (tested in a mixture with another compound),T/C,"dose: 10.0 mg/kg/injection, schedule: Q01DX009 (ip), vehicle: saline with Tween-80",112 % of control
same,T/C,"dose: 40.0 mg/kg/injection, schedule: Q01DX009 (ip), vehicle: saline with Tween-80",121 % of control
O=C(NC(Cc1cnc[nH]1)C(=O)O)c1ccccc1 (stereo unspecified),T/C,[4],92 % of control
same,T/C,[5],98 % of control
same,T/C,"dose: 200.0 mg/kg/injection, schedule: Q01DX009 (ip), vehicle: saline with Tween-80",98 % of control
CONCc1ccc(C(=O)NC(C)C)cc1,T/C,[14],105 % of control
same,T/C,[15],106 % of control
same,T/C,[16],90 % of control
same,T/C,[17],90 % of control
Cn1nnc(C(=O)O)n1,T/C,"dose: 50.0 mg/kg/injection, schedule: Q01DX001 (ip), vehicle: saline",100 % of control
same,T/C,"dose: 100.0 mg/kg/injection, schedule: Q01DX001 (ip), vehicle: saline",100 % of control
same,T/C,"dose: 100.0 mg/kg/injection, schedule: Q04DX003 (ip), vehicle: saline",103 % of control
same,T/C,"dose: 200.0 mg/kg/injection, schedule: Q01DX001 (ip), vehicle: saline",101 % of control
same,T/C,"dose: 200.0 mg/kg/injection, schedule: Q04DX003 (ip), vehicle: saline",103 % of control
same,T/C,"dose: 400.0 mg/kg/injection, schedule: Q04DX003 (ip), vehicle: saline",100 % of control
OCN(CO)c1nc(CCC(Br)(Br)Br)nc(N(CO)CO)n1,T/C,"dose: 12.5 mg/kg/injection, schedule: Q01DX009 (ip), vehicle: distilled water + Tween-80",104 % of control
same,T/C,[14],98 % of control
same,T/C,[15],98 % of control
same,T/C,[16],89 % of control
same,T/C,[17],98 % of control
NCC(=O)CN.[Cl-].[Cl-].[Pt+2],T/C,"dose: 25.0 mg/kg/injection, schedule: Q04DX003 (ip), vehicle: other",121 % of control
same,T/C,"dose: 200.0 mg/kg/injection, schedule: Q04DX003 (ip), vehicle: other",158 % of control
same,T/C,"dose: 400.0 mg/kg/injection, schedule: Q04DX003 (ip), vehicle: other",177 % of control
Cc1ccc(S(=O)(=O)N/N=C/c2cc([N+](=O)[O-])cc(I)c2O)cc1,T/C,"dose: 12.5 mg/kg/injection, schedule: Q01DX005 (ip), vehicle: distilled water + Tween-80",102 % of control
same,T/C,"dose: 25.0 mg/kg/injection, schedule: Q01DX005 (ip), vehicle: distilled water + Tween-80",109 % of control
same,T/C,"dose: 50.0 mg/kg/injection, schedule: Q01DX005 (ip), vehicle: distilled water + Tween-80",98 % of control and 112 % of control
same,T/C,"dose: 100.0 mg/kg/injection, schedule: Q01DX005 (ip), vehicle: distilled water + Tween-80",98 % of control and 102 % of control
same,T/C,"dose: 200.0 mg/kg/injection, schedule: Q01DX005 (ip), vehicle: distilled water + Tween-80",122 % of control and 95 % of control
same,T/C,"dose: 400.0 mg/kg/injection, schedule: Q01DX005 (ip), vehicle: distilled water + Tween-80",93 % of control
CCCCCCCCCCCCOC(=O)c1ccc(OP(=O)(O)OCc2ccccc2)cc1,T/C,"dose: 12.5 mg/kg/injection, schedule: Q01DX009 (ip), vehicle: Klucel (hydroxypropylcellulose) (HPC)",104 % of control
same,T/C,"dose: 25.0 mg/kg/injection, schedule: Q01DX009 (ip), vehicle: Klucel (hydroxypropylcellulose) (HPC)",121 % of control
same,T/C,[9],103 % of control and 115 % of control
